The results in this text go back to publication PMC10459042, “Synthesis of 1,2,3-Triazole-Containing Methoxylated Cinnamides and Their Antileishmanial Activity against the Leishmania braziliensis Species” (Pharmaceuticals, 2023).

For this test, the system named is L. braziliensis promastigotes. Nature of the test: Membrane permeability evaluation (propidium iodide). The class given is cell-based, Leishmania braziliensis. Conditions: one IC50 value, 48 h at 24 °C. The method, then:
L. braziliensis promastigotes (1 × 10^7 cells/mL) were incubated with Compound 28 (at a concentration corresponding to one IC50 value) for 48 h at 24 °C. After washing with PBS, parasites (3 × 10^6 cells/well) were incubated with 1.0 µg/mL PI (Sigma-Aldrich, St. Louis, MO, USA) in the dark for 15 min. The samples were analyzed using a fluorometer microplate reader (FLx800, BioTek Instruments, Winooski, VT, USA), with excitation and emission wavelengths of […], respectively. Parasites that were killed by heating to 65 °C for 10 min were used as controls for the membrane permeabilization. Parasites that were untreated or treated with Compound 28 and not labeled with the fluorescent probe were used as the sample blank.
Figure 5 Effect of Compound 28 on parasite membrane permeability. Parasite promastigotes were either left untreated or treated with Compound 28 (at a concentration corresponding to the IC50 value) for 48 h. The PI dye fluorescence was measured fluorometrically at excitation and emission wavelengths of 540 and 600 nm, respectively. Parasites heated at 65 °C for 10 min were used as a positive control. The data is presented as the fold increase in PI fluorescence relative to the untreated control. (***), signifying p < 0.001, indicates a statistically significant difference compared with the non-treated control.

As to `CCN(CC)c1ccc2cc(-n3cc(CNC(=O)/C=C/c4ccc(OC)c(OC)c4)nn3)c(=O)oc2c1` [Compound 28, N-((1-(7-(diethylamino)-2-oxo-2H-chromen-3-yl)-1H-1,2,3-triazol-4-yl)methyl) (3,4-dimethoxy) cinnamide], the “Fold increase in PI-fluorescence compared with untreated parasites” value is 2.3 fold.
